The values that follow come from ChEMBL document CHEMBL1909046, “DrugMatrix in vitro pharmacology data”.

For orientation: IC50 means the midpoint of a concentration-inhibition curve. The Ki is a measure of affinity in units of concentration, obtained from inhibition or displacement.

Assay [1] has as its target Tyrosine-protein kinase Lck (Homo sapiens, UniProt P06239). Nature of the assay: DRUGMATRIX: Protein Tyrosine Kinase, LCK enzyme inhibition (substrate: Poly(Glu:Tyr)). In kind it is cell-based, Insect cells. The note with it: Not Active = under 50% inhibition at 10 µM.
Assay [2] addresses T1, Angiotensin-converting enzyme (Oryctolagus cuniculus, UniProt P12822).
T1 sequence (P12822 whole entry): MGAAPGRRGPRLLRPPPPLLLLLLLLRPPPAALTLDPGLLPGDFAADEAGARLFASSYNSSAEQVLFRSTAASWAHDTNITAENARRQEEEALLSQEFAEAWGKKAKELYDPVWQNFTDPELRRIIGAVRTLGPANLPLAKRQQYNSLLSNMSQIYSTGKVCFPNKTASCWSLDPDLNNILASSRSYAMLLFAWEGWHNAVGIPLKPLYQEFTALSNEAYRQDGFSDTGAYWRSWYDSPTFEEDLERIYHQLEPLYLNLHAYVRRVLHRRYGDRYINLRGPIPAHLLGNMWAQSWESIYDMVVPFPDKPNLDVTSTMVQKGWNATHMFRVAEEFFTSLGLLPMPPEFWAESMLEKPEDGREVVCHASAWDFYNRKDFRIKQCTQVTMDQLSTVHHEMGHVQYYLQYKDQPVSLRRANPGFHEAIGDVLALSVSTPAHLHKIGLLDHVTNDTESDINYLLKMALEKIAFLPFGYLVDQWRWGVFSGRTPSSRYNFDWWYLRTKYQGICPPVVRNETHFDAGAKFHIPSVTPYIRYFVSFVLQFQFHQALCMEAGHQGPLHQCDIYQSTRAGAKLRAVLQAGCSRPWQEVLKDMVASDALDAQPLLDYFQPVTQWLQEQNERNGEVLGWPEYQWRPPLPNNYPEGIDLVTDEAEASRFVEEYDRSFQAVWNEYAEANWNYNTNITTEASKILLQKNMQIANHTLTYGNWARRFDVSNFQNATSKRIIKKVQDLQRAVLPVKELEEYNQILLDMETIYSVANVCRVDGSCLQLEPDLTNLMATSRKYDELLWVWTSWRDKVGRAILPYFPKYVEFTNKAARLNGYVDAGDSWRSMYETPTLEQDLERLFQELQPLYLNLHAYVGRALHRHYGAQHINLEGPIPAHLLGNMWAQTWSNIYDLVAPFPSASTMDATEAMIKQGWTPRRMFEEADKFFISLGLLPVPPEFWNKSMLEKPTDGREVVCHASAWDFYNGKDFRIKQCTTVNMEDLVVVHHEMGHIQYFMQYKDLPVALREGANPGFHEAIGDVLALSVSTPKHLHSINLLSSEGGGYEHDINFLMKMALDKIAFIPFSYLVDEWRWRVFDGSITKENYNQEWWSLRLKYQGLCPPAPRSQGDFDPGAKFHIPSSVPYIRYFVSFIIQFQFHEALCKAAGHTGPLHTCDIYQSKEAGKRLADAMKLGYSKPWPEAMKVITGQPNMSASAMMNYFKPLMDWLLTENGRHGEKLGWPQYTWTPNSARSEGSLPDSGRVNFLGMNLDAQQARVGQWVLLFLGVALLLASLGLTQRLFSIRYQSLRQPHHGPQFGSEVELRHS
The class given is tissue-based, Lung.

The target of assay [3] is Tyrosine-protein kinase Fyn (Homo sapiens, UniProt P06241). Nature of the assay: biochemical. The class given is cell-based, Insect cells.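 Also: enzymatic inhibition of Fyn kinase activity measured with Poly(Glu:Tyr) as the phosphorylation substrate; in other assays of this panel Not Active means under 50% inhibition at 10 µM.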
The target in assay [4] is T2, C-X-C chemokine receptor type 2 (Homo sapiens, UniProt P25025). Also: in other assays of this panel Not Active means under 50% inhibition at 10 µM.
T2 sequence (P25025 whole entry): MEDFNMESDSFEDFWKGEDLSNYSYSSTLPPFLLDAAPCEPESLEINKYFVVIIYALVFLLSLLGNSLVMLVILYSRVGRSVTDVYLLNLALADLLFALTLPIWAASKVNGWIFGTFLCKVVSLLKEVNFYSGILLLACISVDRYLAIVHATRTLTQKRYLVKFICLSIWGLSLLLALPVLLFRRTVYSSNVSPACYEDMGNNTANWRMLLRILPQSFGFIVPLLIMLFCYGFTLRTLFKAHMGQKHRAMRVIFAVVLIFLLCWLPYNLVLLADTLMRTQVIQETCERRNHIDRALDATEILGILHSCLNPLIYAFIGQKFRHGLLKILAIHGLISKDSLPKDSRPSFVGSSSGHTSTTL
In kind it is cell membranes, Membrane. Conditions: cho-k1.

Assay [5] can be described thus: DRUGMATRIX: Calcium Channel Type L, Dihydropyridine radioligand binding (ligand: [3H] Nitrendipine). In kind it is cell membranes, Rattus norvegicus, Wistar, Cerebral cortex, Membrane. Conditions: Not Active = under 50% inhibition at 10 µM.
Assay [6] is described as follows: DRUGMATRIX: Glutamate, NMDA, Phencyclidine radioligand binding (ligand: [3H] TCP). The class given is cell membranes, Rattus norvegicus, Wistar, Cerebral cortex, Membrane. The note with it: Not Active = under 50% inhibition at 10 µM.
The target of assay [7] is Delta-type opioid receptor (Homo sapiens, UniProt P41143). In kind it is cell membranes, HEK293, Membrane. Also: in other assays of this panel Not Active means under 50% inhibition at 10 µM.
Chain of Delta-type opioid receptor (P41143 whole entry): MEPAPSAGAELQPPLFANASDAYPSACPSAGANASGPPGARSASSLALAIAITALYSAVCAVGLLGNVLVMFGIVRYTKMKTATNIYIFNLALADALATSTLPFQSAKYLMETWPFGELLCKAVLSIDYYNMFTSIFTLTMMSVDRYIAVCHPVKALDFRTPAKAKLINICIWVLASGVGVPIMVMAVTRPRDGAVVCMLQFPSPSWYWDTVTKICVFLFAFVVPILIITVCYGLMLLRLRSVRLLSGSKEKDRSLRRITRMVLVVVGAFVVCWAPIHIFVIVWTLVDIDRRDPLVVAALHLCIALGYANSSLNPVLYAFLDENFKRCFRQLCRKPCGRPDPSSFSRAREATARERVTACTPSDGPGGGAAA

Chain of Tyrosine-protein kinase Fyn (P06241 whole entry): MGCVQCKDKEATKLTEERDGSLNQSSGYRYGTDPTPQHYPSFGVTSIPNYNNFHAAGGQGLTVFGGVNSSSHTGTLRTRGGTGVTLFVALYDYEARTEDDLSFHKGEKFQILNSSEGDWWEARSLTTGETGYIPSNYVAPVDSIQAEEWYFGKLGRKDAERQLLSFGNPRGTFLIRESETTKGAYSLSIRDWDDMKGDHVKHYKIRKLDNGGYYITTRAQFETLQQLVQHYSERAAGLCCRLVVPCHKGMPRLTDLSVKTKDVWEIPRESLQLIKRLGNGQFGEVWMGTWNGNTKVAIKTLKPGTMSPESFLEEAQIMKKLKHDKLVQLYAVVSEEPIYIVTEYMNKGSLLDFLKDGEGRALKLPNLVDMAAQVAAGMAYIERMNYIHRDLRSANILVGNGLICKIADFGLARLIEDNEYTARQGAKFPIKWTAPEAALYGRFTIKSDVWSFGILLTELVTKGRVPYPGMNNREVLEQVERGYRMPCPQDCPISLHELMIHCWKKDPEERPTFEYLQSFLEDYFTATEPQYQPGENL
Chain of Tyrosine-protein kinase Lck (P06239 whole entry): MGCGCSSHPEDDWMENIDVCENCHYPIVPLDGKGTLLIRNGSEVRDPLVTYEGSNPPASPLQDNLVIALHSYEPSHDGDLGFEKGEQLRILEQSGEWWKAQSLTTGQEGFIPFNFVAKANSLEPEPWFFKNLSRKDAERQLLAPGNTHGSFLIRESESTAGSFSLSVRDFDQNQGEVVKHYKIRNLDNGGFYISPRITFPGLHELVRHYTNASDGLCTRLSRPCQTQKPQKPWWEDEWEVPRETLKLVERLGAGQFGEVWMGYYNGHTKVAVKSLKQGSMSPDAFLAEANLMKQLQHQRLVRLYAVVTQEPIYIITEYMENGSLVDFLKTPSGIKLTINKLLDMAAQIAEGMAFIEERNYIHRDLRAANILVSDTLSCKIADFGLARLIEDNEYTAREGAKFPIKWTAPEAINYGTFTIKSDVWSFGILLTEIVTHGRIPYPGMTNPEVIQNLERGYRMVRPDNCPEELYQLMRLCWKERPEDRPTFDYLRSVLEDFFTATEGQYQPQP

With `CC(C)(C)NC(=O)[C@@H]1C[C@@H]2CCCC[C@@H]2CN1C[C@@H](O)[C@H](Cc1ccccc1)NC(=O)[C@H](CC(N)=O)NC(=O)c1ccc2ccccc2n1`, the IC50 result in assay [1] (insect cells), in assay [2], in assay [3] (insect cells), in assay [4], in assay [5] and in assay [6] was “Not Active” in each case. In addition, the Ki result in assay [5] and in assay [6] was “Not Active” each time.
For `CC1(C)O[C@@H]2C[C@H]3[C@@H]4CCC5=CC(=O)C=C[C@]5(C)[C@@]4(F)[C@@H](O)C[C@]3(C)[C@]2(C(=O)CO)O1` [TRIAMCINOLONE ACETONIDE], the IC50 entry in assay [1] (insect cells), in assay [7] (hek293), in assay [2], in assay [3] (insect cells), in assay [4] and in assay [5] was “Not Active” in each case. Further, in assay [6], the IC50 result is on record as “Not Active”. The Ki result in assay [5] and in assay [6] was “Not Active” throughout.
As to `Cc1cccc(N(C)C(=S)Oc2ccc3ccccc3c2)c1` [TOLNAFTATE], the IC50 entry in assay [1] (insect cells), in assay [7] (hek293), in assay [2], in assay [3] (insect cells), in assay [4] and in assay [5] was “Not Active” throughout. In addition, in assay [6], the IC50 entry was “Not Active”. The Ki result in assay [5] and in assay [6] was “Not Active” each time.
On to `C[C@@H]1CN(c2c(F)c(N)c3c(=O)c(C(=O)O)cn(C4CC4)c3c2F)C[C@H](C)N1` [SPARFLOXACIN], for which the IC50 entry in assay [1] (insect cells), in assay [7] (hek293), in assay [2], in assay [3] (insect cells), in assay [4] and in assay [5] was “Not Active” throughout. In addition, the IC50 entry in assay [6] is recorded as “Not Active”. Also, the Ki entry in assay [5] and in assay [6] was “Not Active” throughout.
As for `Cn1ccnc1S` [METHIMAZOLE], the IC50 result in assay [1] (insect cells), in assay [7] (hek293), in assay [2], in assay [3] (insect cells), in assay [4] and in assay [5] was “Not Active” throughout. In addition, the IC50 result in assay [6] is “Not Active”. The Ki entry in assay [5] and in assay [6] was “Not Active” each time.
On to `CN1CCN(CCCN2c3ccccc3Sc3ccc(Cl)cc32)CC1` [PROCHLORPERAZINE], for which the IC50 entry was “Not Active” in assay [1] (insect cells); “Not Active” in assay [7] (hek293); “Not Active” in assay [2]; 5.68 µM in assay [3] (read-out: IC50); “Not Active” in assay [4].
`C=CCC1(C(C)CCC)C(=O)NC(=O)NC1=O` (stereo not given) [SECOBARBITAL]: the IC50 entry in assay [1] (insect cells), in assay [7] (hek293), in assay [2], in assay [3] (insect cells), in assay [4] and in assay [5] was “Not Active” each time. Moreover, in assay [6], the IC50 entry was “Not Active”. The inhibition constant (Ki) result in assay [5] and in assay [6] was “Not Active” throughout.
Consider `N[C@@H](Cc1ccc(N(CCCl)CCCl)cc1)C(=O)O`, for which the IC50 entry in assay [1] (insect cells), in assay [7] (hek293), in assay [2], in assay [3] (insect cells), in assay [4] and in assay [5] was “Not Active” in each case. Also, the IC50 result in assay [6] is listed as “Not Active”. In addition, the inhibition constant Ki result in assay [5] and in assay [6] was “Not Active” throughout.
For `Nc1nc2ccc(OC(F)(F)F)cc2s1` [RILUZOLE], the IC50 result in assay [1] (insect cells), in assay [7] (hek293), in assay [2], in assay [3] (insect cells), in assay [4] and in assay [5] was “Not Active” throughout. Besides, in assay [6], the IC50 result is on record as “Not Active”. For the same compound, the Ki result in assay [5] and in assay [6] was “Not Active” each time.
For the compound `N[C@@H]1[C@H]2CN(c3nc4c(cc3F)c(=O)c(C(=O)O)cn4-c3ccc(F)cc3F)C[C@@H]12` [TROVAFLOXACIN], the IC50 result in assay [7] (hek293), in assay [2], in assay [3] (insect cells), in assay [4], in assay [5] and in assay [6] was “Not Active” in each case. The Ki entry in assay [5] and in assay [6] was “Not Active” in each case.
For the compound `COc1c(C)c2c(c(O)c1C/C=C(\C)CCC(=O)O)C(=O)OC2` [MYCOPHENOLIC ACID], the IC50 entry in assay [1] (insect cells), in assay [7] (hek293), in assay [2], in assay [3] (insect cells), in assay [4] and in assay [5] was “Not Active” each time. For the same compound, the IC50 entry in assay [6] is recorded as “Not Active”. The Ki entry in assay [5] and in assay [6] was “Not Active” in each case.
Consider `CCCOc1ccccc1-c1nc2nn[nH]c2c(=O)[nH]1` [ZAPRINAST], for which the IC50 entry in assay [1] (insect cells), in assay [7] (hek293), in assay [2], in assay [3] (insect cells), in assay [4] and in assay [5] was “Not Active” throughout. The IC50 result in assay [6] was “Not Active”. For the same compound, the inhibition constant (Ki) result in assay [5] and in assay [6] was “Not Active” in each case.
In the case of `Nc1nc2nc[nH]c2c(=S)[nH]1` [THIOGUANINE], the IC50 result in assay [1] (insect cells), in assay [7] (hek293), in assay [2], in assay [3] (insect cells), in assay [4] and in assay [5] was “Not Active” each time. The IC50 result in assay [6] was “Not Active”. Further, the Ki entry in assay [5] and in assay [6] was “Not Active” in each case.
`Cc1c(C)c2c(c(C)c1O)CCC(C)(COc1ccc(CC3SC(=O)NC3=O)cc1)O2` (stereo not given) [TROGLITAZONE]: the IC50 result in assay [1] (insect cells), in assay [7] (hek293), in assay [2], in assay [3] (insect cells), in assay [4] and in assay [5] was “Not Active” in each case. In addition, the IC50 entry in assay [6] is “Not Active”. Besides, the Ki result in assay [5] and in assay [6] was “Not Active” each time.
For the compound `Cc1nc2n(c(=O)c1CCN1CCC(c3noc4cc(F)ccc34)CC1)CCCC2` [RISPERIDONE], the IC50 result in assay [1] (insect cells), in assay [7] (hek293), in assay [2], in assay [3] (insect cells) and in assay [4] was “Not Active” in each case.
For the compound `N[C@@H](Cc1cc(I)c(Oc2ccc(O)c(I)c2)c(I)c1)C(=O)O` [LIOTHYRONINE], the IC50 result in assay [1] (insect cells), in assay [7] (hek293), in assay [2], in assay [3] (insect cells) and in assay [4] was “Not Active” throughout.
For `CCCCc1oc2ccccc2c1C(=O)c1cc(I)c(OCCN(CC)CC)c(I)c1` [AMIODARONE], the IC50 result in assay [1] (insect cells) is “Not Active”; in assay [2], “Not Active”; in assay [3] (read-out: IC50), 0.817 µM; in assay [4] it was “Not Active”.
As for `CC/C(=C(\c1ccccc1)c1ccc(OCCN(C)C)cc1)c1ccccc1` [TAMOXIFEN], the IC50 in assay [1] (read-out: IC50) was 8.03 µM; in assay [7] (read-out: IC50) it was 13.3 µM; in assay [2] it was “Not Active”; in assay [3] (read-out: IC50) it was 1.2 µM; in assay [4], “Not Active”. Moreover, in assay [7] (read-out: Ki), the Ki is 4.7 µM.
